Measured values taken from patent US20220389061A1, “IMMUNOMODULATORS” (priority 2019, published 2022).
Starred links: 1 amine or outer side, 2 acyl side, 3 side chain; linkers in the order of their positions; H or OH if unused. Positions of bridges follow the written chain, without caps; N, C: chain ends. Non-standard residues stand in square brackets, D forms with d. Residues, ends and D or L forms follow the SMILES beside them. Groups on a side chain read outwards from the residue. *: point of attachment. Trp(1-CH2COOH) = N[C@@H](Cc1cn(CC(=O)O)c2ccccc12)C(=O)O; X23 = COc1cc(NC(=S)*)ccc1-n1cnc(Cl)c1; X63 = COc1cc([N+](=O)[O-])ccc1NC(=S)*; X83 = FC(F)(F)c1cc(N*)cc(C(F)(F)F)c1; X88 = Cc1cc([N+](=O)[O-])ccc1NC(=S)*; X31 = S=C(Nc1cccc2c(Cl)c[nH]c12)*; Hyp = O=C(O)[C@@H]1C[C@@H](O)CN1; X10 = S=C(Nc1ccc(N2CCOCC2)cc1)*; X30 = FC(F)(F)c1ccc(N*)c(Cl)c1; X91 = Cc1cc(NC(=S)*)c2ccccc2n1; X36 = c1ccc(Oc2cccc(N*)c2)cc1; X42 = S=C(Nc1ccc2nccnc2c1Br)*; NMeNle = CCCC[C@H](NC)C(=O)O; X5 = S=C(Nc1cccc2ccccc12)*; NMeA = CN[C@@H](C)C(=O)O; X58 = COc1cc(N*)cc(OC)c1; Dab = NCC[C@H](N)C(=O)O; Dap = NC[C@H](N)C(=O)O; X15 = Cc1ccc(Cl)cc1N*; CO = O=C([*:1])[*:2]

Biological target: T1, PD-1/PD-L1 (Homo sapiens, UniProt Q9NZQ7)
T1 construct: TVMV protease site linker (C); made in house; host or cells: HEK293T cells
T1 sequence (Q9NZQ7 18-239): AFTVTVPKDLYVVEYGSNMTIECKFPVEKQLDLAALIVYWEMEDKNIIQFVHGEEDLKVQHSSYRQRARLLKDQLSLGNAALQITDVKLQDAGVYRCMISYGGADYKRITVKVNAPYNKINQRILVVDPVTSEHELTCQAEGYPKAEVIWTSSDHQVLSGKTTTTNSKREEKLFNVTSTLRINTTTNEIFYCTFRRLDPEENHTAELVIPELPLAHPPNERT
Assay: PD-1/PD-L1 Homogenous Time-Resolved Fluorescence (HTRF) binding assay
Conditions: not given
Method in brief: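 Compounds preincubated 15 min with PD-L1-His (10 nM final), then PD-1-Ig (20 nM final) added for 15 min in dPBS with 0.1% BSA, 0.05% Tween-20. Detection by Eu-cryptate anti-Ig (1 nM) and APC anti-His (20 nM) HTRF.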

First: CCCC[C@H]1C(=O)N(C)[C@@H](CCCC)C(=O)N[C@@H](CC(C)C)C(=O)N[C@H](C(=O)NCC(N)=O)CSCC(=O)N[C@@H](Cc2ccc(O)cc2)C(=O)N(C)[C@@H](C)C(=O)N[C@@H](CC(N)=O)C(=O)N2CCC[C@H]2C(=O)N[C@@H](CNC(=S)Nc2ccc([N+](=O)[O-])cc2C)C(=O)N[C@@H](CC(C)C)C(=O)N2C[C@H](O)C[C@H]2C(=O)N[C@@H](Cc2c[nH]c3ccccc23)C(=O)N[C@@H](CCNC(=S)Nc2ccc([N+](=O)[O-])cc2C)C(=O)N[C@@H](Cc2cn(CC(=O)O)c3ccccc23)C(=O)N1C [Example 1125] ({CH2CO}-Y[NMeA]NP[Dap](X88)L[Hyp]W[Dab](X88)[Trp(1-CH2COOH)][NMeNle][NMeNle]LCG-NH2; thioether N-14)
Second: CCCC[C@H]1C(=O)N(C)[C@@H](CCCC)C(=O)N[C@@H](CC(C)C)C(=O)N[C@H](C(=O)NCC(N)=O)CSCC(=O)N[C@@H](Cc2ccc(O)cc2)C(=O)N(C)[C@@H](C)C(=O)N[C@@H](CC(N)=O)C(=O)N2CCC[C@H]2C(=O)N[C@@H](CNC(=S)Nc2ccc([N+](=O)[O-])cc2OC)C(=O)N[C@@H](CC(C)C)C(=O)N2C[C@H](O)C[C@H]2C(=O)N[C@@H](Cc2c[nH]c3ccccc23)C(=O)N[C@@H](CCNC(=S)Nc2ccc([N+](=O)[O-])cc2OC)C(=O)N[C@@H](Cc2cn(CC(=O)O)c3ccccc23)C(=O)N1C [Example 1104] ({CH2CO}-Y[NMeA]NP[Dap](X63)L[Hyp]W[Dab](X63)[Trp(1-CH2COOH)][NMeNle][NMeNle]LCG-NH2; thioether N-14)
The IC50 of the first is 1.8-fold lower: 6.7 nM for the first, 12 nM for the second.

Same assay, conditions: PD-L1-His 10 nM pre-incubated with inhibitor, PD-1-Ig 20 nM; read-out: HTRF IC50

First: CCCC[C@H]1C(=O)N(C)[C@@H](CCCC)C(=O)N[C@@H](CC(C)C)C(=O)N[C@H](C(=O)NCC(N)=O)CSCC(=O)N[C@@H](Cc2ccc(O)cc2)C(=O)N(C)[C@@H](C)C(=O)N[C@@H](CC(N)=O)C(=O)N2CCC[C@H]2C(=O)N[C@@H](CNC(=S)Nc2ccc(N3CCOCC3)cc2)C(=O)N[C@@H](CC(C)C)C(=O)N2C[C@H](O)C[C@H]2C(=O)N[C@@H](Cc2c[nH]c3ccccc23)C(=O)N[C@@H](CCNC(=S)Nc2ccc(N3CCOCC3)cc2)C(=O)N[C@@H](Cc2cn(CC(=O)O)c3ccccc23)C(=O)N1C [Example 1127] ({CH2CO}-Y[NMeA]NP[Dap](X10)L[Hyp]W[Dab](X10)[Trp(1-CH2COOH)][NMeNle][NMeNle]LCG-NH2; thioether N-14)
Second: CCCC[C@H]1C(=O)N(C)[C@@H](CCCC)C(=O)N[C@@H](CC(C)C)C(=O)N[C@H](C(=O)NCC(N)=O)CSCC(=O)N[C@@H](Cc2ccc(O)cc2)C(=O)N(C)[C@@H](C)C(=O)N[C@@H](CC(N)=O)C(=O)N2CCC[C@H]2C(=O)N[C@@H](CNC(=S)Nc2cccc3ccccc23)C(=O)N[C@@H](CC(C)C)C(=O)N2C[C@H](O)C[C@H]2C(=O)N[C@@H](Cc2c[nH]c3ccccc23)C(=O)N[C@@H](CCNC(=S)Nc2cccc3ccccc23)C(=O)N[C@@H](Cc2cn(CC(=O)O)c3ccccc23)C(=O)N1C [Example 3033] ({CH2CO}-Y[NMeA]NP[Dap](X5)L[Hyp]W[Dab](X5)[Trp(1-CH2COOH)][NMeNle][NMeNle]LCG-NH2; thioether N-14)
The IC50 of the first is 2-fold higher: 3 nM for the first, 1.5 nM for the second.

CCCC[C@H]1C(=O)N(C)[C@@H](CCCC)C(=O)N[C@@H](CC(C)C)C(=O)N[C@H](C(=O)NCC(N)=O)CSCC(=O)N[C@@H](Cc2ccc(O)cc2)C(=O)N(C)[C@@H](C)C(=O)N[C@@H](CC(N)=O)C(=O)N2CCC[C@H]2C(=O)N[C@@H](CNC(=S)Nc2cc(C)nc3ccccc23)C(=O)N[C@@H](CC(C)C)C(=O)N2C[C@H](O)C[C@H]2C(=O)N[C@@H](Cc2c[nH]c3ccccc23)C(=O)N[C@@H](CCN)C(=O)N[C@@H](Cc2cn(CC(=O)O)c3ccccc23)C(=O)N1C [Example 3053] ({CH2CO}-Y[NMeA]NP[Dap](X91)L[Hyp]W[Dab][Trp(1-CH2COOH)][NMeNle][NMeNle]LCG-NH2; thioether N-14) and CCCC[C@H]1C(=O)N(C)[C@@H](CCCC)C(=O)N[C@@H](CC(C)C)C(=O)N[C@H](C(=O)NCC(N)=O)CSCC(=O)N[C@@H](Cc2ccc(O)cc2)C(=O)N(C)[C@@H](C)C(=O)N[C@@H](CC(N)=O)C(=O)N2CCC[C@H]2C(=O)N[C@@H](CN)C(=O)N[C@@H](CC(C)C)C(=O)N2C[C@H](O)C[C@H]2C(=O)N[C@@H](Cc2c[nH]c3ccccc23)C(=O)N[C@@H](CCNC(=S)Nc2cccc3c(Cl)c[nH]c23)C(=O)N[C@@H](Cc2cn(CC(=O)O)c3ccccc23)C(=O)N1C [Example 3031] ({CH2CO}-Y[NMeA]NP[Dap]L[Hyp]W[Dab](X31)[Trp(1-CH2COOH)][NMeNle][NMeNle]LCG-NH2; thioether N-14) are within 1.5-fold of each other in IC50: 3.4 nM for the first, 3.1 nM for the second.

First: CCCC[C@H]1C(=O)N(C)[C@@H](CCCC)C(=O)N[C@@H](CC(C)C)C(=O)N[C@H](C(=O)NCC(N)=O)CSCC(=O)N[C@@H](Cc2ccc(O)cc2)C(=O)N(C)[C@@H](C)C(=O)N[C@@H](CC(N)=O)C(=O)N2CCC[C@H]2C(=O)N[C@@H](CNC(=O)Nc2cc(C(F)(F)F)cc(C(F)(F)F)c2)C(=O)N[C@@H](CC(C)C)C(=O)N2C[C@H](O)C[C@H]2C(=O)N[C@@H](Cc2c[nH]c3ccccc23)C(=O)N[C@@H](CCNC(=O)Nc2cc(C(F)(F)F)cc(C(F)(F)F)c2)C(=O)N[C@@H](Cc2cn(CC(=O)O)c3ccccc23)C(=O)N1C [Example 1015] ({CH2CO}-Y[NMeA]NP[Dap]([CO-X83])L[Hyp]W[Dab]([CO-X83])[Trp(1-CH2COOH)][NMeNle][NMeNle]LCG-NH2; thioether N-14)
Second: CCCC[C@H]1C(=O)N(C)[C@@H](CCCC)C(=O)N[C@@H](CC(C)C)C(=O)N[C@H](C(=O)NCC(N)=O)CSCC(=O)N[C@@H](Cc2ccc(O)cc2)C(=O)N(C)[C@@H](C)C(=O)N[C@@H](CC(N)=O)C(=O)N2CCC[C@H]2C(=O)N[C@@H](CN)C(=O)N[C@@H](CC(C)C)C(=O)N2C[C@H](O)C[C@H]2C(=O)N[C@@H](Cc2c[nH]c3ccccc23)C(=O)N[C@@H](CCNC(=O)Nc2ccc(C(F)(F)F)cc2Cl)C(=O)N[C@@H](Cc2cn(CC(=O)O)c3ccccc23)C(=O)N1C [Example 1115] ({CH2CO}-Y[NMeA]NP[Dap]L[Hyp]W[Dab]([CO-X30])[Trp(1-CH2COOH)][NMeNle][NMeNle]LCG-NH2; thioether N-14)
The IC50 of the first is 27-fold higher: 274 nM for the first, 10 nM for the second. The second is the more potent here.

CCCC[C@H]1C(=O)N(C)[C@@H](CCCC)C(=O)N[C@@H](CC(C)C)C(=O)N[C@H](C(=O)NCC(N)=O)CSCC(=O)N[C@@H](Cc2ccc(O)cc2)C(=O)N(C)[C@@H](C)C(=O)N[C@@H](CC(N)=O)C(=O)N2CCC[C@H]2C(=O)N[C@@H](CNC(=S)Nc2ccc(-n3cnc(Cl)c3)c(OC)c2)C(=O)N[C@@H](CC(C)C)C(=O)N2C[C@H](O)C[C@H]2C(=O)N[C@@H](Cc2c[nH]c3ccccc23)C(=O)N[C@@H](CCNC(=S)Nc2ccc(-n3cnc(Cl)c3)c(OC)c2)C(=O)N[C@@H](Cc2cn(CC(=O)O)c3ccccc23)C(=O)N1C [Example 1091] ({CH2CO}-Y[NMeA]NP[Dap](X23)L[Hyp]W[Dab](X23)[Trp(1-CH2COOH)][NMeNle][NMeNle]LCG-NH2; thioether N-14) and CCCC[C@H]1C(=O)N(C)[C@@H](CCCC)C(=O)N[C@@H](CC(C)C)C(=O)N[C@H](C(=O)NCC(N)=O)CSCC(=O)N[C@@H](Cc2ccc(O)cc2)C(=O)N(C)[C@@H](C)C(=O)N[C@@H](CC(N)=O)C(=O)N2CCC[C@H]2C(=O)N[C@@H](CNC(=S)Nc2ccc3nccnc3c2Br)C(=O)N[C@@H](CC(C)C)C(=O)N2C[C@H](O)C[C@H]2C(=O)N[C@@H](Cc2c[nH]c3ccccc23)C(=O)N[C@@H](CCNC(=S)Nc2ccc3nccnc3c2Br)C(=O)N[C@@H](Cc2cn(CC(=O)O)c3ccccc23)C(=O)N1C [Example 3070] ({CH2CO}-Y[NMeA]NP[Dap](X42)L[Hyp]W[Dab](X42)[Trp(1-CH2COOH)][NMeNle][NMeNle]LCG-NH2; thioether N-14) are within 1.5-fold of each other in IC50: 4.3 nM for the first, 5.9 nM for the second.

First: CCCC[C@H]1C(=O)N(C)[C@@H](CCCC)C(=O)N[C@@H](CC(C)C)C(=O)N[C@H](C(=O)NCC(N)=O)CSCC(=O)N[C@@H](Cc2ccc(O)cc2)C(=O)N(C)[C@@H](C)C(=O)N[C@@H](CC(N)=O)C(=O)N2CCC[C@H]2C(=O)N[C@@H](CN)C(=O)N[C@@H](CC(C)C)C(=O)N2C[C@H](O)C[C@H]2C(=O)N[C@@H](Cc2c[nH]c3ccccc23)C(=O)N[C@@H](CCNC(=O)Nc2cc(Cl)ccc2C)C(=O)N[C@@H](Cc2cn(CC(=O)O)c3ccccc23)C(=O)N1C [Example 1117] ({CH2CO}-Y[NMeA]NP[Dap]L[Hyp]W[Dab]([CO-X15])[Trp(1-CH2COOH)][NMeNle][NMeNle]LCG-NH2; thioether N-14)
Second: CCCC[C@H]1C(=O)N(C)[C@@H](CCCC)C(=O)N[C@@H](CC(C)C)C(=O)N[C@H](C(=O)NCC(N)=O)CSCC(=O)N[C@@H](Cc2ccc(O)cc2)C(=O)N(C)[C@@H](C)C(=O)N[C@@H](CC(N)=O)C(=O)N2CCC[C@H]2C(=O)N[C@@H](CNC(=O)Nc2cc(OC)cc(OC)c2)C(=O)N[C@@H](CC(C)C)C(=O)N2C[C@H](O)C[C@H]2C(=O)N[C@@H](Cc2c[nH]c3ccccc23)C(=O)N[C@@H](CCN)C(=O)N[C@@H](Cc2cn(CC(=O)O)c3ccccc23)C(=O)N1C [Example 1064] ({CH2CO}-Y[NMeA]NP[Dap]([CO-X58])L[Hyp]W[Dab][Trp(1-CH2COOH)][NMeNle][NMeNle]LCG-NH2; thioether N-14)
The IC50 of the first is 1.6-fold higher: 4.7 nM for the first, 3 nM for the second.

CCCC[C@H]1C(=O)N(C)[C@@H](CCCC)C(=O)N[C@@H](CC(C)C)C(=O)N[C@H](C(=O)NCC(N)=O)CSCC(=O)N[C@@H](Cc2ccc(O)cc2)C(=O)N(C)[C@@H](C)C(=O)N[C@@H](CC(N)=O)C(=O)N2CCC[C@H]2C(=O)N[C@@H](CNC(=O)Nc2cccc(Oc3ccccc3)c2)C(=O)N[C@@H](CC(C)C)C(=O)N2C[C@H](O)C[C@H]2C(=O)N[C@@H](Cc2c[nH]c3ccccc23)C(=O)N[C@@H](CCNC(=O)Nc2cccc(Oc3ccccc3)c2)C(=O)N[C@@H](Cc2cn(CC(=O)O)c3ccccc23)C(=O)N1C [Example 1020] ({CH2CO}-Y[NMeA]NP[Dap]([CO-X36])L[Hyp]W[Dab]([CO-X36])[Trp(1-CH2COOH)][NMeNle][NMeNle]LCG-NH2; thioether N-14) was tested, and the IC50 was 24 nM.
